Tests used:
[1] = tested on: bicistronic HCV replicon (replicon RNA, GenBank Accession No. AJ242654); assay: HCV Replicon Assay; type: cell-based; details: Hepatitis C virus, 72 h, read-out: Replicon IC50

For CCc1cc2c(cc1F)c(C#N)c(-c1ccc(S(=O)(=O)N[C@@H](C)C(F)(F)F)cn1)n2-c1cc(C)ccn1 [compound 932, 6-[3-cyano-6-ethyl-5-fluoro-1-(4-methylpyridin-2-yl)-1H-indol-2-yl]-N-[(2S)-1,1,1-trifluoropropan-2-yl]pyridine-3-sulfonamide], the IC50 [1] was < 500 nM and the melting point was 188 to 190 °C.

With Cc1ccc2c(C#N)c(-c3ncc(S(=O)(=O)NC(CF)CF)cn3)n(C3CCC3)c2c1 [compound 132, 2-(3-cyano-1-cyclobutyl-6-methyl-1H-indol-2-yl)-N-(1,3-difluoropropan-2-yl)pyrimidine-5-sulfonamide] the IC50 [1] was < 500 nM and the melting point was 236 to 238 °C.

With CCc1cc2c(cc1F)c(C#N)c(-c1ccc(S(=O)(=O)NC3(C(F)(F)F)CC3)cn1)n2C1CCCC1 [compound 637, 6-(3-cyano-1-cyclopentyl-6-ethyl-5-fluoro-1H-indol-2-yl)-N-[1-(trifluoromethyl)cyclopropyl]pyridine-3-sulfonamide] the IC50 [1] was < 500 nM and the melting point was 198 to 199 °C.

For CNC(=O)c1c(-c2ccc(S(=O)(=O)NC(C)(C)C)cn2)n(C2CCCC2)c2cc(C)c(F)cc12 [compound 799, 2-[5-(tert-butylsulfamoyl)pyridin-2-yl]-1-cyclopentyl-5-fluoro-N,6-dimethyl-1H-indole-3-carboxamide], the IC50 [1] was < 500 nM and the melting point was 248 to 250 °C.

In the case of C[C@H](NS(=O)(=O)c1cnc(-c2c(C#N)c3cc(C(F)F)ccc3n2C2CCC2)nc1)C(F)(F)F [compound 380, 2-[3-cyano-1-cyclobutyl-5-(difluoromethyl)-1H-indol-2-yl]-N-[(2S)-1,1,1-trifluoropropan-2-yl]pyrimidine-5-sulfonamide], the IC50 [1] is reported as < 500 nM and the melting point is reported as 186 to 188 °C.

In the case of C[C@@H](NS(=O)(=O)c1ccc(-c2c(C#N)c3cc(F)c(OC(F)F)cc3n2C2CCCC2)nc1)C(F)(F)F [compound 713, 6-[3-cyano-1-cyclopentyl-6-(difluoromethoxy)-5-fluoro-1H-indol-2-yl]-N-[(2R)-1,1,1-trifluoropropan-2-yl]pyridine-3-sulfonamide], the IC50 [1] is reported as < 500 nM and the melting point is reported as 197 to 200 °C.

In the case of C[C@H](NS(=O)(=O)c1cnc(-c2c(C#N)c3cc(F)ccc3n2-c2ccccn2)nc1)C(F)(F)F [compound 474, 2-[3-cyano-5-fluoro-1-(pyridin-2-yl)-1H-indol-2-yl]-N-[(2S)-1,1,1-trifluoropropan-2-yl]pyrimidine-5-sulfonamide], the IC50 [1] is reported as < 500 nM and the melting point is reported as 209 to 210 °C.

Compound N#Cc1c(-c2ncc(S(=O)(=O)NC(CF)CF)cn2)n(C2CCCCC2)c2cc(OC(F)(F)F)ccc12 [compound 306, 2-[3-cyano-1-cyclohexyl-6-(trifluoromethoxy)-1H-indol-2-yl]-N-(1,3-difluoropropan-2-yl)pyrimidine-5-sulfonamide] has an IC50 [1] of 500 to 2000 nM and a melting point of 168 to 170 °C.

In the case of Cc1ccc2c(C#N)c(-c3ccc(S(=O)(=O)N[C@@H](C)C(F)(F)F)cn3)n(C3CCC3)c2c1 [compound 351, 6-(3-cyano-1-cyclobutyl-6-methyl-1H-indol-2-yl)-N-[(2S)-1,1,1-trifluoropropan-2-yl]pyridine-3-sulfonamide], the IC50 [1] is reported as < 500 nM and the melting point is reported as 203 to 208 °C.

With COc1ccc2c(C#N)c(-c3ncc(S(=O)(=O)N[C@@H](C)C4CC4)cn3)n(C3CCC3)c2c1 [compound 205, 2-(3-cyano-1-cyclobutyl-6-methoxy-1H-indol-2-yl)-N-[(1S)-1-cyclopropylethyl]pyrimidine-5-sulfonamide] the IC50 [1] was < 500 nM and the melting point was 204 to 206 °C.

Compound CCc1cc2c(cc1F)c(C#N)c(-c1ccc(S(=O)(=O)N[C@@H](C)C(F)(F)F)cn1)n2-c1ccnc(C)n1 [compound 943, 6-[3-cyano-6-ethyl-5-fluoro-1-(2-methylpyrimidin-4-yl)-1H-indol-2-yl]-N-[(2S)-1,1,1-trifluoropropan-2-yl]pyridine-3-sulfonamide] has an IC50 [1] of 500 to 2000 nM and a melting point of 138 to 146 °C.

In the case of CC(C)(NS(=O)(=O)c1ccc(-c2c(C#N)c3cc(F)ccc3n2-c2ncccn2)nc1)C(F)(F)F [compound 602, 6-[3-cyano-5-fluoro-1-(pyrimidin-2-yl)-1H-indol-2-yl]-N-(1,1,1-trifluoro-2-methylpropan-2-yl)pyridine-3-sulfonamide], the IC50 [1] is reported as 500 to 2000 nM and the melting point is reported as 231 to 234 °C.

For C[C@H](NS(=O)(=O)c1ccc(-c2c(C#N)c3ccc(OC(F)F)cc3n2-c2ccccn2)nc1)C(F)(F)F [compound 387, 6-[3-cyano-6-(difluoromethoxy)-1-(pyridin-2-yl)-1H-indol-2-yl]-N-[(2S)-1,1,1-trifluoropropan-2-yl]pyridine-3-sulfonamide], the IC50 [1] was < 500 nM and the melting point was 199 to 203 °C.

With CCc1cc2c(cc1F)c(C#N)c(-c1ccc(S(=O)(=O)N[C@@H](C)C(F)(F)F)cn1)n2-c1ncc(C)cn1 [compound 976, 6-[3-cyano-6-ethyl-5-fluoro-1-(5-methylpyrimidin-2-yl)-1H-indol-2-yl]-N-[(2S)-1,1,1-trifluoropropan-2-yl]pyridine-3-sulfonamide] the IC50 [1] was < 500 nM and the melting point was 201 to 206 °C.

For Cc1cc2c(C#N)c(-c3ccc(S(=O)(=O)N[C@@H](C)C(F)(F)F)cn3)n(-c3ccccn3)c2cc1F [compound 917, 6-[3-cyano-6-fluoro-5-methyl-1-(pyridin-2-yl)-1H-indol-2-yl]-N-[(2S)-1,1,1-trifluoropropan-2-yl]pyridine-3-sulfonamide], the IC50 [1] was < 500 nM and the melting point was 175 to 180 °C.

With CCc1cc2c(cc1F)c(C#N)c(-c1cc(C)c(S(=O)(=O)N[C@H](C)C(F)(F)F)cn1)n2-c1ccccn1 [compound 891, 6-[3-cyano-6-ethyl-5-fluoro-1-(pyridin-2-yl)-1H-indol-2-yl]-4-methyl-N-[(2R)-1,1,1-trifluoropropan-2-yl]pyridine-3-sulfonamide] the IC50 [1] was < 500 nM and the melting point was 178 to 183 °C.

With N#Cc1c(-c2ccc(S(=O)(=O)NC(CF)CF)cn2)n(-c2ccccc2)c2ccc(Cl)cc12 [compound 112, 6-(5-chloro-3-cyano-1-phenyl-1H-indol-2-yl)-N-(1,3-difluoropropan-2-yl)pyridine-3-sulfonamide] the IC50 [1] was < 500 nM and the melting point was 192 to 196 °C.

Compound CCc1cc2c(cc1F)c(C#N)c(-c1ccc(S(=O)(=O)N(c3ncccn3)C3(C)CC3)cn1)n2-c1ncccn1 [compound 861, 6-[3-cyano-6-ethyl-5-fluoro-1-(pyrimidin-2-yl)-1H-indol-2-yl]-N-(1-methylcyclopropyl)-N-(pyrimidin-2-yl)pyridine-3-sulfonamide] has an IC50 [1] of 2000 to 5000 nM and a melting point of 193 to 200 °C.

For CC(C)c1ccc2c(C#N)c(-c3ccc(S(=O)(=O)NC(CF)CF)cn3)n(CC3CC3)c2c1 [compound 460, 6-[3-cyano-1-(cyclopropylmethyl)-6-(propan-2-yl)-1H-indol-2-yl]-N-(1,3-difluoropropan-2-yl)pyridine-3-sulfonamide], the IC50 [1] was < 500 nM and the melting point was 132 to 134 °C.

In the case of CC(C)(C)NS(=O)(=O)c1ccc(-c2c(C#N)c3cc(F)ccc3n2C2CCC2)nc1 [compound 9, N-tert-butyl-6-(3-cyano-1-cyclobutyl-5-fluoro-1H-indol-2-yl)pyridine-3-sulfonamide], the IC50 [1] is reported as < 500 nM and the melting point is reported as 181 to 185 °C.

For C[C@@H](NS(=O)(=O)c1ccc(-c2c(C#N)c3ccc(OC(F)F)cc3n2-c2ccc(F)cc2)nc1)C(F)(F)F [compound 649, 6-[3-cyano-6-(difluoromethoxy)-1-(4-fluorophenyl)-1H-indol-2-yl]-N-[(2R)-1,1,1-trifluoropropan-2-yl]pyridine-3-sulfonamide], the IC50 [1] was < 500 nM and the melting point was 199 to 203 °C.

With C[C@H](NS(=O)(=O)c1ccc(-c2c(C#N)c3ccc(C(F)(F)F)cc3n2-c2ccccn2)nc1)C(F)(F)F [compound 952, 6-[3-cyano-1-(pyridin-2-yl)-6-(trifluoromethyl)-1H-indol-2-yl]-N-[(2S)-1,1,1-trifluoropropan-2-yl]pyridine-3-sulfonamide] the IC50 [1] was < 500 nM and the melting point was 173 to 176 °C.

For CCc1cc2c(cc1F)c(C#N)c(-c1ccc(S(=O)(=O)N[C@@H](C)C(F)(F)F)cn1)n2-c1cccc(F)c1 [compound 1008, 6-[3-cyano-6-ethyl-5-fluoro-1-(3-fluorophenyl)-1H-indol-2-yl]-N-[(2S)-1,1,1-trifluoropropan-2-yl]pyridine-3-sulfonamide], the IC50 [1] was < 500 nM and the melting point was 210 to 214 °C.

In the case of CCOc1cc2c(cc1F)c(C#N)c(-c1ccc(S(=O)(=O)N[C@@H](C)C(F)(F)F)cn1)n2C1CCC1 [compound 726, 6-(3-cyano-1-cyclobutyl-6-ethoxy-5-fluoro-1H-indol-2-yl)-N-[(2S)-1,1,1-trifluoropropan-2-yl]pyridine-3-sulfonamide], the IC50 [1] is reported as < 500 nM and the melting point is reported as 193 to 196 °C.

For N#Cc1c(-c2ccc(S(=O)(=O)NC(CF)CF)cn2)n(C2CCCC2)c2cc(OC(F)F)c(F)cc12 [compound 573, 6-[3-cyano-1-cyclopentyl-6-(difluoromethoxy)-5-fluoro-1H-indol-2-yl]-N-(1,3-difluoropropan-2-yl)pyridine-3-sulfonamide], the IC50 [1] was < 500 nM and the melting point was 190 to 194 °C.

COc1ccc2c(C#N)c(-c3ncc(S(=O)(=O)N[C@H](C)C(F)(F)F)cn3)n(C3CCC3)c2c1 [compound 183, 2-(3-cyano-1-cyclobutyl-6-methoxy-1H-indol-2-yl)-N-[(2R)-1,1,1-trifluoropropan-2-yl]pyrimidine-5-sulfonamide] gave an IC50 [1] of 500 to 2000 nM and a melting point of 147 to 149 °C.

For Cc1cc2c(cc1F)c(C#N)c(-c1ccc(S(=O)(=O)NC(C)C)cn1)n2C1CCC1 [compound 655, 6-(3-cyano-1-cyclobutyl-5-fluoro-6-methyl-1H-indol-2-yl)-N-(propan-2-yl)pyridine-3-sulfonamide], the IC50 [1] was < 500 nM and the melting point was 222 to 226 °C.

For C[C@H](NS(=O)(=O)c1cnc(-c2c(C#N)c3cc(F)ccc3n2C2CCCCC2)nc1)C(F)(F)F [compound 393, 2-(3-cyano-1-cyclohexyl-5-fluoro-1H-indol-2-yl)-N-[(2S)-1,1,1-trifluoropropan-2-yl]pyrimidine-5-sulfonamide], the IC50 [1] was < 500 nM and the melting point was 236 to 238 °C.

From patent US8735414B2 (priority 2009, dated 2014)
